# Measurements published in the supplement of paper PMC6125532.
# Legend:
# [1] = system: Mycobacterium tuberculosis CRY-12; CRY-24
# Procedure: (§1)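 Resazurin microtiter assay (REMA) MICs of anti-TB drugs against 19 EQA Mycobacterium tuberculosis strains (clinical or proficiency isolates plus H37Rv). Drugs were tested in doubling dilutions. Each value is the consensus of two measurements; where they disagreed the lower value was taken.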
# [2] = system: Mycobacterium tuberculosis CRY-27
# Procedure: as §1
# [3] = system: Mycobacterium tuberculosis CRY-2; CRY-25
# Procedure: as §1
# [4] = system: Mycobacterium tuberculosis CRY-19
# Procedure: as §1
# [5] = system: Mycobacterium tuberculosis CRY-6; CRY-29
# Procedure: as §1
# [6] = system: Mycobacterium tuberculosis CRY-26
# Procedure: as §1
# [7] = system: Mycobacterium tuberculosis CRY-3; CRY-11
# Procedure: as §1
# [8] = system: Mycobacterium tuberculosis CRY-14
# Procedure: as §1
# [9] = system: Mycobacterium tuberculosis CRY-7; CRY-18
# Procedure: as §1
# [10] = system: Mycobacterium tuberculosis CRY-16
# Procedure: as §1
# [11] = system: Mycobacterium tuberculosis CRY-8; CRY-13
# Procedure: as §1
# [12] = system: Mycobacterium tuberculosis CRY-20
# Procedure: as §1
# [13] = system: Mycobacterium tuberculosis CRY-4; CRY-30
# Procedure: as §1
# [14] = system: Mycobacterium tuberculosis CRY-9; CRY-22
# Procedure: as §1
# [15] = system: Mycobacterium tuberculosis CRY-5; CRY-10
# Procedure: as §1
# [16] = system: Mycobacterium tuberculosis CRY-28
# Procedure: as §1
# [17] = system: Mycobacterium tuberculosis CRY-1; CRY-17
# Procedure: as §1
# [18] = system: Mycobacterium tuberculosis CRY-23
# Procedure: as §1
# [19] = system: Mycobacterium tuberculosis CRY-15; CRY-21
# Procedure: as §1
MIC (REMA) [1],MIC (REMA) [2],MIC (REMA) [3],MIC (REMA) [4],MIC (REMA) [5],MIC (REMA) [6],MIC (REMA) [7],MIC (REMA) [8],MIC (REMA) [9],MIC (REMA) [10],MIC (REMA) [11],MIC (REMA) [12],MIC (REMA) [13],MIC (REMA) [14],MIC (REMA) [15],MIC (REMA) [16],MIC (REMA) [17],MIC (REMA) [18],MIC (REMA) [19],Structure (SMILES)
0.06 µg/mL,0.06 µg/mL,0.25 µg/mL,0.04 µg/mL,0.015 µg/mL,0.03 µg/mL,0.03 µg/mL,≤ 0.008 µg/mL,0.25 µg/mL,0.03 µg/mL,0.5 µg/mL,0.03 µg/mL,0.06 µg/mL,0.015 µg/mL,8 µg/mL,0.06 µg/mL,0.03 µg/mL,0.03 µg/mL,0.06 µg/mL,COc1c(N2C[C@@H]3CCCN[C@@H]3C2)c(F)cc2c(=O)c(C(=O)O)cn(C3CC3)c12 [Moxifloxacin]
0.25 µg/mL,0.25 µg/mL,,0.125 µg/mL,0.125 µg/mL,0.25 µg/mL,0.25 µg/mL,0.06 µg/mL,,0.25 µg/mL,,0.125 µg/mL,0.25 µg/mL,0.125 µg/mL,,0.06 µg/mL,0.125 µg/mL,0.06 µg/mL,0.125 µg/mL,C[C@H]1COc2c(N3CCN(C)CC3)c(F)cc3c(=O)c(C(=O)O)cn1c23 [Levofloxacin]
0.25 µg/mL,0.25 µg/mL,0.25 µg/mL,0.06 µg/mL,0.125 µg/mL,0.25 µg/mL,0.5 µg/mL,0.03 µg/mL,0.25 µg/mL,0.25 µg/mL,0.25 µg/mL,0.125 µg/mL,0.5 µg/mL,0.25 µg/mL,0.25 µg/mL,0.125 µg/mL,0.25 µg/mL,0.25 µg/mL,0.25 µg/mL,CC(=O)NC[C@H]1CN(c2ccc(N3CCOCC3)c(F)c2)C(=O)O1 [Linezolid]
0.015 µg/mL,> 4 µg/mL,,0.03 µg/mL,,0.015 µg/mL,,2 µg/mL,> 4 µg/mL,,> 4 µg/mL,0.06 µg/mL,,,> 4 µg/mL,> 4 µg/mL,> 4 µg/mL,,0.03 µg/mL,CO[C@H]1/C=C/O[C@@]2(C)Oc3c(C)c(O)c4c(O)c(c(/C=N/N5CCN(C)CC5)c(O)c4c3C2=O)NC(=O)/C(C)=C\C=C\[C@H](C)[C@H](O)[C@@H](C)[C@@H](O)[C@@H](C)[C@H](OC(C)=O)[C@@H]1C [Rifampicin]
0.03 µg/mL,0.25 µg/mL,0.03 µg/mL,0.015 µg/mL,0.015 µg/mL,0.015 µg/mL,0.06 µg/mL,0.015 µg/mL,0.06 µg/mL,0.03 µg/mL,0.03 µg/mL,0.015 µg/mL,0.03 µg/mL,2 µg/mL,0.125 µg/mL,0.008 µg/mL,> 2 µg/mL,0.03 µg/mL,0.125 µg/mL,C[C@]1(COc2ccc(N3CCC(Oc4ccc(OC(F)(F)F)cc4)CC3)cc2)Cn2cc([N+](=O)[O-])nc2O1 [Delamanid]
≤ 0.004 µg/mL,> 2 µg/mL,≤ 0.004 µg/mL,≤ 0.004 µg/mL,≤ 0.004 µg/mL,≤ 0.004 µg/mL,≤ 0.004 µg/mL,0.125 µg/mL,2 µg/mL,≤ 0.004 µg/mL,2 µg/mL,≤ 0.004 µg/mL,≤ 0.004 µg/mL,≤ 0.004 µg/mL,1 µg/mL,1 µg/mL,> 2 µg/mL,≤ 0.004 µg/mL,0.008 µg/mL,CO[C@H]1/C=C/O[C@@]2(C)Oc3c(C)c(O)c4c(c3C2=O)C2=NC3(CCN(CC(C)C)CC3)NC2=C(NC(=O)/C(C)=C\C=C\[C@H](C)[C@H](O)[C@@H](C)[C@@H](O)[C@@H](C)[C@H](OC(C)=O)[C@@H]1C)C4=O [Rifabutin]

# The next lines start with the compound.
Structure (SMILES),MIC (REMA) [1],MIC (REMA) [2],MIC (REMA) [3],MIC (REMA) [4],MIC (REMA) [5],MIC (REMA) [6],MIC (REMA) [7],MIC (REMA) [8],MIC (REMA) [9],MIC (REMA) [10],MIC (REMA) [11],MIC (REMA) [12],MIC (REMA) [13],MIC (REMA) [14],MIC (REMA) [15],MIC (REMA) [16],MIC (REMA) [17],MIC (REMA) [18],MIC (REMA) [19]
CC(C)/N=c1\cc2n(-c3ccc(Cl)cc3)c3ccccc3nc-2cc1Nc1ccc(Cl)cc1 [Clofazimine],,,0.12 µg/mL,,0.06 µg/mL,0.06 µg/mL,0.12 µg/mL,0.03 µg/mL,,0.12 µg/mL,0.06 µg/mL,,0.03 µg/mL,1 µg/mL,0.06 µg/mL,,,0.008 µg/mL,1 µg/mL
NNC(=O)c1ccncc1 [Isoniazid],,,,0.125 µg/mL,> 8 µg/mL,0.03 µg/mL,0.06 µg/mL,> 8 µg/mL,> 8 µg/mL,≤ 0.015 µg/mL,> 8 µg/mL,,,0.03 µg/mL,> 8 µg/mL,> 8 µg/mL,> 8 µg/mL,> 8 µg/mL,
CC[C@@H](CO)NCCN[C@@H](CC)CO [Ethambutol],1 µg/mL,1 µg/mL,1 µg/mL,0.5 µg/mL,1 µg/mL,0.5 µg/mL,1 µg/mL,4 µg/mL,,4 µg/mL,,,,,,0.5 µg/mL,4 µg/mL,1 µg/mL,1 µg/mL
NCC[C@H](O)C(=O)N[C@@H]1C[C@H](N)[C@@H](O[C@H]2O[C@H](CN)[C@@H](O)[C@H](O)[C@H]2O)[C@H](O)[C@H]1O[C@H]1O[C@H](CO)[C@@H](O)[C@H](N)[C@H]1O [Amikacin],> 16 µg/mL,,0.25 µg/mL,0.25 µg/mL,,,,> 16 µg/mL,> 16 µg/mL,,,,,0.25 µg/mL,0.25 µg/mL,0.25 µg/mL,,0.125 µg/mL,
NC[C@H]1O[C@H](O[C@H]2[C@H](O)[C@@H](O[C@H]3O[C@H](CO)[C@@H](O)[C@H](N)[C@H]3O)[C@H](N)C[C@@H]2N)[C@H](O)[C@@H](O)[C@@H]1O [Kanamycin],> 32 µg/mL,2 µg/mL,1 µg/mL,0.5 µg/mL,1 µg/mL,1 µg/mL,2 µg/mL,> 32 µg/mL,> 32 µg/mL,1 µg/mL,2 µg/mL,1 µg/mL,2 µg/mL,1 µg/mL,0.5 µg/mL,0.5 µg/mL,1 µg/mL,0.5 µg/mL,2 µg/mL
COc1nc2ccc(Br)cc2cc1[C@@H](c1ccccc1)[C@@](O)(CCN(C)C)c1cccc2ccccc12 [Bedaquiline],0.5 µg/mL,0.06 µg/mL,0.06 µg/mL,0.015 µg/mL,0.03 µg/mL,0.03 µg/mL,0.12 µg/mL,≤ 0.004 µg/mL,0.06 µg/mL,0.03 µg/mL,0.06 µg/mL,0.03 µg/mL,0.015 µg/mL,0.25 µg/mL,0.015 µg/mL,0.015 µg/mL,0.06 µg/mL,0.008 µg/mL,2 µg/mL
